According to patent US8143419B2, “Trisubstituted 1,2,4-triazoles” (Janssen Pharmaceutica N. V., priority 2006, dated 2012):
pEC50: −log10 of the molar value. Where a name gives a salt, the structure may show the parent alone.

Legend:
hα7-wt nAChR = molecular target: T1, hα7-wt nAChR (Homo sapiens, UniProt P36544); test: Ca2+ flux imaging (FDSS) (Protocol B), PAM activity with choline as agonist; type: cell-based; settings: for pEC50: "<5" = no top plateau at maximal concentration; for Emax: read-out: % efficacy
T1 construct: expressed in transfected cells
T1 sequence (P36544 23-502): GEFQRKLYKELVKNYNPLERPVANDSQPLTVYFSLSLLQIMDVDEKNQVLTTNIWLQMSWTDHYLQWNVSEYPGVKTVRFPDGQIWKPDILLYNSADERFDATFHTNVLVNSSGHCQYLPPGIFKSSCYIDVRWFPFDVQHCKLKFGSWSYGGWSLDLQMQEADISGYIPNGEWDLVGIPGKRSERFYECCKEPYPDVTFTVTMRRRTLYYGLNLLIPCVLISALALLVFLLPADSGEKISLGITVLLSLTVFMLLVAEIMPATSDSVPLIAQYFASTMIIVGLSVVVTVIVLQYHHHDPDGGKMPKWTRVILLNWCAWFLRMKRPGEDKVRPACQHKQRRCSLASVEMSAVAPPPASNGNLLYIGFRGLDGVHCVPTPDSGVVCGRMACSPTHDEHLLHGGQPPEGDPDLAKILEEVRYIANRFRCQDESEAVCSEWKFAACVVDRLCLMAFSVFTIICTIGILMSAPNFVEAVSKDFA
Procedure: • Hanks buffered saline solution (HBSS, Invitrogen, Belgium), supplemented with 10 mM HEPES (Invitrogen, Belgium), CaCl2 to a final concentration of 5 mM, 0.1% Bovine serum albumin (Sigma-Aldrich NV, Belgium). b) Calcium-Sensitive Dye—Fluo-4AM • Fluo-4AM (Molecular Probes, USA) was dissolved in DMSO containing 10% Pluronic acid (Molecular Probes, USA) to give a stock solution which was diluted in assay buffer supplemented with 5 mM probenicid (Sigma, Aldrich NV, Belgium) to give a final concentration of 2 μM. c) 384-Well Plates • Black 384 well plate black/clear plates, PDL pre-coated (Corning, Incorporated, USA) d) Calcium Flux Measurement
A Functional drug screening system (FDSS, Hamamatsu) was used to measure intracellular free-calcium flux signals.
Monolayers of hα7-wt nAChR-expressing cells were grown in multi-well plates, in particular black-sided, transparent bottomed 384 well plates coated with poly-D-lysine for 24 hours prior to loading with a fluorescent calcium indicator, in a particular embodiment loading with fluo-4AM for up to 120 minutes.
PAM activity was detected in real time by applying the compounds to be tested to the loaded cells along with a α7 nicotinic receptor agonist during constant monitoring of cellular fluorescence in a FDSS. Compounds giving peak fluorescent responses greater than the response due to agonist alone, were considered to be α7 nAChR PAM's. In a particular embodiment, the α7 nicotinic receptor agonist was choline, a more particular embodiment choline applied at a sub-maximal concentration of 100 μM. In a further setting of the present invention the compounds to be tested were applied prior to the α7 nicotinic receptor agonist, in a particular embodiment up to 10 minutes prior to the agonist.
A control response to choline was calculated on each plate from the difference in peak in fluorescence in wells receiving either choline or assay buffer alone. Compounds of the present invention were tested at a concentration range from 0.01 μM to 30 μM. Compounds were considered to have an interesting activity when they potentiated the choline signal at least with 500% when tested at a concentration of 30 μM (the efficacy of 100 μM choline was defined as 100% in the absence of a PAM). The compounds also have a potentiating effect on the response to choline when measured by whole-cell patch clamp electrophysiology in GH4C1 cells stably over-expressing the human wild-type α7 receptor.

Compound | melting point | pEC50 (hα7-wt nAChR) | Emax (hα7-wt nAChR)
C[C@@H](O)Cn1nc(Nc2ccc(F)c(C(F)(F)F)c2)nc1-c1ccc(C2CC2)nc1 (as salt: HCl) (hydrate or solvate) [Compound 100] | 204.6 °C |  | 
CC(O)Cn1nc(Nc2cccc(OC(F)(F)F)c2)nc1-c1ccnc(C2CC2)c1 (centres unmarked) (as salt: HCl) [Compound 151] | 207.5 °C |  | 
CNC(=O)Cn1nc(Nc2cccc(C(F)(F)F)c2)nc1-c1ccc2c(c1)OCCO2 [Compound 1] | 206.2 to 207.1 °C | 6.60 | 
OCCn1nc(Nc2cccc(C(F)(F)F)c2)nc1-c1ccncc1 [Compound 2] | 179.1 to 180 °C | 5.10 | 
CN(C)C(=O)CCn1nc(Nc2cccc(C(F)(F)F)c2)nc1-c1ccncc1 [Compound 4] | 164.2 to 174.2 °C | 6.30 | 
CC(C)NC(=O)Cn1nc(Nc2cccc(C(F)(F)F)c2)nc1-c1ccc2c(c1)OCCO2 [Compound 5] | 213.9 to 215 °C | 6.70 | 
Cc1cc(C(=O)NCCCn2nc(Nc3cccc(C(F)(F)F)c3)nc2-c2ccncc2)no1 [Compound 8] | 152.9 to 154.9 °C | 5.60 | 
CNC(=O)Cn1nc(Nc2cccc(C(F)(F)F)c2)nc1-c1ccncc1 [Compound 9] | 212.9 to 214 °C | < 5.00 | 
NC(=O)CCn1nc(Nc2cccc(C(F)(F)F)c2)nc1-c1ccc2c(c1)OCCO2 [Compound 10] | 175.2 to 176.5 °C | 5.70 | 
CNC(=O)CCn1nc(Nc2cccc(C(F)(F)F)c2)nc1-c1ccc2c(c1)OCCO2 [Compound 12] |  | 6.10 | 
OCCn1nc(Nc2cc(Cl)ccc2Cl)nc1-c1ccncc1 [Compound 14] | 163.4 to 165.2 °C | 5.30 | 
COc1cc(OC)c(Nc2nc(-c3ccncc3)n(CCO)n2)cc1Cl [Compound 15] | 207.2 to 207.9 °C |  | 
OCCn1nc(Nc2cc(Cl)ccc2Cl)nc1-c1ccccc1 [Compound 17] | 140.5 to 142 °C |  | 
NC(=O)Cn1nc(Nc2cccc(C(F)(F)F)c2)nc1-c1ccncc1 [Compound 19] | 271 to 272.1 °C | < 5.00 | 
NC(=O)Cn1nc(Nc2cccc(C(F)(F)F)c2)nc1-c1ccc2c(c1)OCCO2 [Compound 21] | 225.5 °C | 5.90 | 
CC(C)NC(=O)CCn1nc(Nc2cccc(C(F)(F)F)c2)nc1-c1ccncc1 [Compound 22] | 196.5 to 197.2 °C |  | 
COCCNC(=O)Cn1nc(Nc2cccc(C(F)(F)F)c2)nc1-c1ccncc1 [Compound 24] | 184.2 to 188.1 °C | < 5.00 | 
Cc1cc(-c2nc(Nc3ccc4c(c3)OC(F)(F)O4)nn2CC(=O)NCC2CC2)ccn1 [Compound 26] | 227.2 °C | 6.10 | 
CNC(=O)Cn1nc(Nc2ccc(F)c(C(F)(F)F)c2)nc1-c1cnc2c(c1)OCC2 [Compound 28] | 246.8 °C | 6.10 | 
CC(C)(C)OC(=O)CCn1nc(Nc2ccc(F)c(C(F)(F)F)c2)nc1-c1ccnc(C#N)c1 [Compound 29] | 156.1 °C |  | 

Compound | melting point | pEC50 (hα7-wt nAChR) | Emax (hα7-wt nAChR)
CC(C)(C)OC(=O)CCn1nc(Nc2ccc(F)c(C(F)(F)F)c2)nc1-c1ccnc(CN)c1 [Compound 30] | 151.6 °C |  | 
O=C(O)CCn1nc(Nc2ccc(F)c(C(F)(F)F)c2)nc1-c1ccnc(Cl)c1 [Compound 31] | 180.7 °C |  | 
CN(C)C(=O)CCn1nc(Nc2ccc3c(c2)OC(F)(F)O3)nc1-c1ccncc1 [Compound 33] | 216.4 °C | 6.20 | 
CNC(=O)Cn1nc(Nc2cc(F)c(F)c(NC)c2)nc1-c1ccnc(NC)c1 [Compound 35] | 221.6 °C | < 5.00 | 
CNC(=O)Cn1nc(Nc2cc(F)c(F)c(F)c2)nc1-c1ccnc(NC)c1 [Compound 36] | 277.5 °C | 5.60 | 
CNc1cc(-c2nc(Nc3ccc(F)c(C(F)(F)F)c3)nn2CCc2noc(C)n2)ccn1 [Compound 37] | 188.7 °C | 5.90 | 
CCNc1cc(-c2nc(Nc3cc(F)c(F)c(F)c3)nn2C[C@H](C)O)ccn1 [Compound 39] | 165.1 °C | 6.00 | 
CNC(=O)c1ccc(-c2nc(Nc3ccc(F)c(F)c3)nn2C[C@H](C)O)cn1 [Compound 41] | 186.1 °C | < 5.00 | 635%
Cc1cc(-c2nc(Nc3ccc(F)c(C(F)(F)F)c3)nn2CCCC(=O)N(C)C)ccn1 [Compound 42] | 146.9 °C | 6.00 | 
CC(=O)CCCn1nc(Nc2ccc(F)c(C(F)(F)F)c2)nc1-c1ccnc(C)c1 [Compound 43] | 124.1 °C | 6.10 | 
COc1ccc(Nc2nc(-c3ccnc(C4CC4)c3)n(CCF)n2)cc1C(F)(F)F [Compound 44] | 165.8 °C | 5.90 | 818%
Cc1cc(-c2nc(Nc3ccc4c(c3)OC(F)(F)O4)nn2CCC(=O)N(C)C)ccn1 [Compound 45] | 219.3 °C | 6.20 | 
CCNC(=O)Cn1nc(Nc2ccc3c(c2)OC(F)(F)O3)nc1-c1ccnc(C)c1 [Compound 46] | 244.9 °C | 5.70 | 
CC(=O)CCn1nc(Nc2cccc(C(F)(F)F)c2)nc1-c1ccnc(C)c1 [Compound 47] | 138.1 °C | < 5.00 | 
Cc1cc(-c2nc(Nc3cccc(C(F)(F)F)c3)nn2CCC(=O)N(C)C)ccn1 [Compound 48] | 169.1 °C | 6.20 | 
N/C(CCn1nc(Nc2ccc(F)c(C(F)(F)F)c2)nc1-c1ccnc(Cl)c1)=N\O [Compound 55] | 166.8 °C |  | 
CN(C)C(=O)CCn1nc(Nc2ccc(F)c(C(F)(F)F)c2)nc1-c1cnc2c(c1)CCN2 [Compound 58] |  | 6.80 | 
CN(C)C(=O)CCn1nc(Nc2ccc(F)c(C(F)(F)F)c2)nc1-c1ccnc(CN)c1 [Compound 60] |  | 5.40 | 772%
N#CCCn1nc(Nc2cccc(C(F)(F)F)c2)nc1-c1ccncc1 [Compound 64] | 155.9 to 157.1 °C |  | 
Cc1noc(CCn2nc(Nc3ccc(F)c(C(F)(F)F)c3)nc2-c2ccncc2)n1 [Compound 69] |  | 5.70 | 

Compound | melting point | pEC50 (hα7-wt nAChR) | Emax (hα7-wt nAChR)
O=C(CCn1nc(Nc2cccc(C(F)(F)F)c2)nc1-c1ccncc1)N1CCOCC1 [Compound 86] |  | 5.90 | 
COCCNc1ccc(-c2nc(Nc3ccc(F)c(C(F)(F)F)c3)nn2CCO)cn1 [Compound 93] |  | 5.50 | 764%
OCCn1nc(Nc2ccc(F)c(C(F)(F)F)c2)nc1-c1ccc(NC2CC2)nc1 [Compound 95] |  | 5.70 | 899%
CCNc1cc(-c2nc(Nc3ccc(F)c(C(F)(F)F)c3)nn2C[C@H](C)O)ccn1 [Compound 99] |  | 6.00 | 
C[C@H](O)Cn1nc(Nc2ccc(F)c(C(F)(F)F)c2)nc1-c1ccc(C2CC2)nc1 [Compound 101] |  | 6.20 | 
C[C@H](O)Cn1nc(Nc2ccc(F)c(C(F)(F)F)c2)nc1-c1ccnc(C2CC2)c1 [Compound 102] |  | 5.70 | 
C[C@H](O)Cn1nc(Nc2ccc(F)c(C(F)(F)F)c2)nc1-c1cnc2ccoc2c1 [Compound 106] |  | 5.60 | 
CC(C)(C)NC(=O)CCn1nc(Nc2ccc(F)c(C(F)(F)F)c2)nc1-c1ccncc1 [Compound 137] |  | 5.80 | 
CCNC(=O)Cn1nc(Nc2cc(Br)cc(C(F)(F)F)c2)nc1-c1ccc(OC)c(OCc2ccccc2)c1 [Compound 142] |  | 7.00 | 
COc1cc(Nc2nc(-c3ccnc(NCCO)c3)n(CC(=O)NCCO)n2)cc(C(F)(F)F)c1 [Compound 147] |  | < 5.00 | 864%
CCNc1cnccc1-c1nc(Nc2cccc(OC(F)(F)F)c2)nn1CC(C)O (centres unmarked) [Compound 149] |  | 6.00 | 704%
CC(O)Cn1nc(Nc2cccc(OC(F)(F)F)c2)nc1-c1ccnc(C2CC2)c1 (centres unmarked) [Compound 151] |  | 5.70 | 
CN(C)CCNC(=O)Cn1nc(Nc2cccc(OC(F)(F)F)c2)nc1-c1ccc2c(c1)OCCO2 [Compound 161] |  | 5.80 | 550%
C[C@H](O)Cn1nc(Nc2cc(F)c(F)c(F)c2)nc1-c1ccnc(NC2CC2)c1 [Compound 173] |  | 6.30 | 
CN(C)C(=O)CCn1nc(Nc2cccc(Cl)c2)nc1-c1ccc2c(c1)OCCO2 [Compound 195] |  | 7.10 | 
COc1ccc(Cl)cc1Nc1nc(-c2ccc3c(c2)OCCO3)n(CCC(=O)N(C)C)n1 [Compound 197] |  | 6.90 | 
Cc1cc(-c2nc(Nc3ccc4c(c3)OC(F)(F)O4)nn2CC(C)O)ccn1 (centres unmarked) [Compound 198] |  | < 5.00 | 
CN(C)C(=O)CCn1nc(N2CCc3ccc(C(F)(F)F)cc32)nc1-c1ccc2c(c1)OCCO2 [Compound 211] |  | 6.00 | 
